Measured values taken from patent publication US20070203066A1, “Compositions and methods for inhibiting cellular proliferation” (priority 2005, published 2007).
Non-standard residues stand in square brackets, D forms with d. Primed or numbered codes have the meaning given here. No end group written: not given here. Ida = iminodiacetic acid linker, its two carboxyls bind the Lys side-chain amines of two peptides, giving a homodimer; Ida(3) = iminodiacetic acid linker, Lys side-chain amines bound to its two carboxyl groups; Ida(4) = iminodiacetic acid linker (dimerization linker bound to lysine side chain)

Tested on: HUVECs
Assay type: cell-based
Details: 48 h
Summary of the method: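 HUVECs seeded at 5,000 cells/well in EBM with 2% FCS, adhered ≥12 hours, then stimulated with bFGF 10 ng/ml or VEGF 5 ng/ml plus varying peptide concentrations. After 48 hours at 37 ° C, 5% CO2, proliferation inhibition read by BrdU incorporation.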

**Q.** With `CC[C@H](C)[C@H](NC(=O)[C@H](C)NC(=O)[C@@H](NC(=O)[C@H](C)NC(=O)[C@H](CCC(N)=O)NC(=O)[C@H](CCCNC(=N)N)NC(=O)[C@H](CCCNC(=N)N)NC(=O)[C@H](CCCNC(=N)N)NC(=O)[C@H](CCCNC(=N)N)NC(=O)[C@H](C)NC(C)=O)C(C)C)C(=O)N[C@@H](Cc1ccc(O)cc1)C(=O)N[C@@H](Cc1ccccc1)C(=O)N[C@@H](CCCCNC(=O)CN(CC(=O)NCCCC[C@H](NC(=O)[C@H](Cc1ccccc1)NC(=O)[C@H](Cc1ccc(O)cc1)NC(=O)[C@@H](NC(=O)[C@H](C)NC(=O)[C@@H](NC(=O)[C@H](C)NC(=O)[C@H](CCC(N)=O)NC(=O)[C@H](CCCNC(=N)N)NC(=O)[C@H](CCCNC(=N)N)NC(=O)[C@H](CCCNC(=N)N)NC(=O)[C@H](CCCNC(=N)N)NC(=O)[C@H](C)NC(C)=O)C(C)C)[C@@H](C)CC)C(N)=O)C(=O)CCNC(=O)OC(C)(C)C)C(N)=O` [Peptide 315] as the molecule, how does the IC50 read?
**A.** < 10 µM

**Q.** For `CC[C@H](C)[C@H](NC(=O)[C@H](CCCNC(=N)N)NC(=O)[C@@H](NC(=O)[C@H](CCCNC(=N)N)NC(=O)[C@H](CCC(N)=O)NC(=O)[C@H](CCCNC(=N)N)NC(=O)[C@H](CCCNC(=N)N)NC(=O)[C@H](CCCNC(=N)N)NC(=O)[C@H](CCCNC(=N)N)NC(=O)[C@H](CCCNC(=N)N)NC(C)=O)C(C)C)C(=O)N[C@@H](Cc1ccc(O)cc1)C(=O)N[C@@H](Cc1ccccc1)C(=O)N[C@@H](CCCCNC(=O)CN(CC(=O)NCCCC[C@H](NC(=O)[C@H](Cc1ccccc1)NC(=O)[C@H](Cc1ccc(O)cc1)NC(=O)[C@@H](NC(=O)[C@H](CCCNC(=N)N)NC(=O)[C@@H](NC(=O)[C@H](CCCNC(=N)N)NC(=O)[C@H](CCC(N)=O)NC(=O)[C@H](CCCNC(=N)N)NC(=O)[C@H](CCCNC(=N)N)NC(=O)[C@H](CCCNC(=N)N)NC(=O)[C@H](CCCNC(=N)N)NC(=O)[C@H](CCCNC(=N)N)NC(C)=O)C(C)C)[C@@H](C)CC)C(N)=O)C(=O)CCNC(=O)OC(C)(C)C)C(N)=O` [Peptide 279], which IC50 is on record?
**A.** < 10 µM

**Q.** With `CC[C@H](C)[C@H](NC(=O)[C@H](Cc1c[nH]cn1)NC(=O)[C@@H](NC(=O)[C@H](Cc1c[nH]cn1)NC(=O)[C@H](CCC(N)=O)NC(=O)[C@H](CCCNC(=N)N)NC(=O)[C@H](CCCNC(=N)N)NC(=O)[C@H](CCCNC(=N)N)NC(=O)[C@H](CCCNC(=N)N)NC(=O)[C@H](Cc1c[nH]cn1)NC(C)=O)C(C)C)C(=O)N[C@@H](Cc1ccc(O)cc1)C(=O)N[C@@H](Cc1ccccc1)C(=O)N[C@@H](CCCCNC(=O)CN(CC(=O)NCCCC[C@H](NC(=O)[C@H](Cc1ccccc1)NC(=O)[C@H](Cc1ccc(O)cc1)NC(=O)[C@@H](NC(=O)[C@H](Cc1c[nH]cn1)NC(=O)[C@@H](NC(=O)[C@H](Cc1c[nH]cn1)NC(=O)[C@H](CCC(N)=O)NC(=O)[C@H](CCCNC(=N)N)NC(=O)[C@H](CCCNC(=N)N)NC(=O)[C@H](CCCNC(=N)N)NC(=O)[C@H](CCCNC(=N)N)NC(=O)[C@H](Cc1c[nH]cn1)NC(C)=O)C(C)C)[C@@H](C)CC)C(N)=O)C(=O)CCNC(=O)OC(C)(C)C)C(N)=O` [Peptide 322] as the molecule, how does the IC50 read?
**A.** < 10 µM

Same assay, conditions: HUVEC proliferation, bFGF at 10 ng/ml or VEGF at 5 ng/ml, 48 hours, BrdU incorporation; read-out: IC50 on HUVECs

**Q.** With “353 (Ac-ARRRRQRVAIYYK-NH2; not fully specified (residue 13); also: homodimer of residues 1-13 via Ida linker on K13 side chain) [compound 353]” as the molecule, how does the IC50 read?
**A.** > 30 µM

**Q.** How did the IC50 turn out when KTKRKRKKQRVKIA [compound 37] was run?
**A.** > 30 µM

**Q.** With “322 (XRRRRQHVHIYFK; Xaa = Acylated Histidine; The side chain of Lysine at position 13 is covalently bound to an Ida linker forming a homodimer of residues 1 through 13.) [compound 322]” as the molecule, how does the IC50 read?
**A.** < 10 µM

**Q.** For “403 (Ac-GRRRRQAVAIYFK(Ida(3))-NH2; also: homodimer via Ida linker on Lys13 side chain, Boc on Ida amine) [compound 403]”, which IC50 is on record?
**A.** < 10 µM

**Q.** How did the IC50 turn out when KTKRKRKKQRVKIIFVQNA [compound 105] was run?
**A.** < 10 µM

**Q.** For “258 (Ac-ARRRRQ[dR]VAIIFK-NH2; not fully specified (residue 13); also: homodimer via Ida linker on Lys13 side chains) [compound 258]”, which IC50 is on record?
**A.** < 10 µM

**Q.** With “262 (Ac-AR[dR]RRQRVAIIFK-NH2; not fully specified (residue 13); also: homodimer via Ida linker on Lys13 side chains) [compound 262]” as the molecule, how does the IC50 read?
**A.** < 10 µM

**Q.** Which IC50 does the source give for “469 (Ac-ARRRRQRVAIYFKARRRRQRVAIYFK; not fully specified) [compound 469]” here?
**A.** < 10 µM

**Q.** With “438 (Ac-RRRRNQAVAIYFK(Ida(4)); not fully specified (C-terminus); also: homodimer via Ida linker at K13) [compound 438]” as the molecule, how does the IC50 read?
**A.** < 10 µM

**Q.** How did the IC50 turn out when “317 (Ac-ARRRRQHVAIYFK(Ida)-NH2; also: homodimer via Ida linker on Lys13 side chain) [compound 317]” was run?
**A.** < 10 µM

**Q.** For “480 (Ac-PRRRWQAVAIYFK(Ida(3)); not fully specified (C-terminus); also: homodimer via Ida linker on Lys13 side chain) [compound 480]”, which IC50 is on record?
**A.** 10 to 30 µM

**Q.** With KTKRKRKKQRVKIAYEEIF [compound 16] as the molecule, how does the IC50 read?
**A.** 10 to 30 µM

**Q.** With “409 (Ac-QRRRRQAVAIYFK; not fully specified (residue 13, C-terminus); also: homodimer via Ida linker on Lys side chains, linker at 13 via Ida, other end not in the chain) [compound 409]” as the molecule, how does the IC50 read?
**A.** < 10 µM

**Q.** “502 (Ac-PRRHRQAVAIYFK; not fully specified (residue 13, C-terminus); also: homodimer via Ida linker on Lys13 side chain) [compound 502]” was tested. Which IC50 did it give?
**A.** 10 to 30 µM

**Q.** Which IC50 does the source give for “358 (Ac-RRRRRQAVRIDIDFK; not fully specified) [compound 358]” here?
**A.** > 30 µM

**Q.** For “199 (Ac-RARRAQRVRIIF; also: dimer: C-terminal Phe bound to an amino group of a Lys linker, 2 chains per Lys) [compound 199]”, which IC50 is on record?
**A.** < 10 µM

**Q.** “351 (Ac-ARRRRQRVAIYGK-NH2; not fully specified (residue 13); also: homodimer of residues 1-13 via Ida linker on K13 side chain) [compound 351]” was tested. Which IC50 did it give?
**A.** > 30 µM

**Q.** Which IC50 does the source give for “283 (Ac-RRRRAQAVHIYFK-NH2; not fully specified (residue 13); also: homodimer: Lys13 side chain bound to Ida linker) [compound 283]” here?
**A.** < 10 µM

**Q.** For “252 (Ac-ARRRRQRVAIIF[dK]; not fully specified (C-terminus); also: homodimer: side chain of Lys13 bound to an Ida linker) [compound 252]”, which IC50 is on record?
**A.** < 10 µM

**Q.** For KTKRKRKKQRVKIAYEEIFVQN [compound 25], which IC50 is on record?
**A.** < 10 µM

**Q.** Which IC50 does the source give for “437 (Ac-RRRRMQAVAIYFK(Ida(4)); not fully specified (C-terminus); also: homodimer via Ida linker at K13) [compound 437]” here?
**A.** < 10 µM

**Q.** How did the IC50 turn out when “453 (Ac-QRRRRQAVAIVFK-NH2; not fully specified (residue 13); also: homodimer via Ida linker at K13) [compound 453]” was run?
**A.** < 10 µM

**Q.** With “371 (Ac-ARRRRQRVAYYFK-NH2; not fully specified (residue 13); also: homodimer via Ida linker on Lys13 side chain, Boc on Ida amine) [compound 371]” as the molecule, how does the IC50 read?
**A.** < 10 µM

**Q.** With “203 (Ac-RRARAQRVRIIF; also: dimer: C-terminal Phe bound to an amino group of a Lys linker, 2 chains per Lys) [compound 203]” as the molecule, how does the IC50 read?
**A.** < 10 µM

**Q.** Which IC50 does the source give for KKQRVKIAYEEIFVQNM [compound 24] here?
**A.** > 30 µM

**Q.** With “318 (XRRRRQAVAIYFK; Xaa = Acylated Histidine; The side chain of Lysine at position 13 is covalently bound to an Ida linker forming a homodimer of residues 1 through 13.) [compound 318]” as the molecule, how does the IC50 read?
**A.** < 10 µM

**Q.** With “391 (Ac-ARRRRQAVNIYFK; not fully specified (residue 13, C-terminus); also: homodimer of residues 1-13 via Ida linker at Lys13 side chain) [compound 391]” as the molecule, how does the IC50 read?
**A.** < 10 µM

**Q.** Which IC50 does the source give for KRKRKKQRVKIIFV [compound 87] here?
**A.** < 10 µM

**Q.** “308 (Ac-RRRRRQAVK(Ida)IIFV; also: homodimer via Ida linker on Lys9 side chain) [compound 308]” was tested. Which IC50 did it give?
**A.** < 10 µM

**Q.** “198 (Ac-RARARQRVRIIF; also: dimer: C-terminal Phe bound to an amino group of a Lys linker, 2 chains per Lys) [compound 198]” was tested. Which IC50 did it give?
**A.** < 10 µM

**Q.** “271 (Ac-ARRRRQRVAIYF; also: homodimer via Lys linker, Phe C-termini bound to the two Lys amino groups) [compound 271]” was tested. Which IC50 did it give?
**A.** < 10 µM

**Q.** For “278 (Ac-RRRRRQHVHIYFK-NH2; not fully specified (residue 13); also: homodimer: Lys13 side chain bound to Ida linker) [compound 278]”, which IC50 is on record?
**A.** < 10 µM

**Q.** For “332 (XRRRHQHVRIYFK; not fully specified; Xaa = Acylated Histidine; The side chain of Lysine at position 13 is covalently bound to an Ida linker forming a homodimer of residues 1 through 13.) [compound 332]”, which IC50 is on record?
**A.** < 10 µM

**Q.** With KRKRKKQRVKIIF [compound 81] as the molecule, how does the IC50 read?
**A.** 10 to 30 µM

**Q.** Which IC50 does the source give for “213 (Ac-ARARRQRVAIIF; also: dimer: Phe C-termini joined via Lys linker) [compound 213]” here?
**A.** < 10 µM

**Q.** “397 (Ac-ARRRRQAVYIYFK; not fully specified (residue 13, C-terminus); also: homodimer of residues 1-13 via Ida linker at Lys13 side chain) [compound 397]” was tested. Which IC50 did it give?
**A.** < 10 µM

**Q.** RKKQRVKIAYEEIFVKNM [compound 11] was tested. Which IC50 did it give?
**A.** > 30 µM
